{"source": "patent US11365215B2", "about": "“Method for preventing, improving, or treating inflammatory bowel disease” (Research & Business Foundation Sungkyunkwan University, priority 2015, dated 2022)", "assay_type_in_all_cases": "cell-based", "key": {"[1]": {"test_system": "AP-1", "experiment": "AP-1-Luc reporter luciferase assay in LPS-treated RAW 246.7 cells", "conditions": "25 μM for 30 minutes, LPS 100 ng/ml 2 hours", "protocol": "RAW 246.7 macrophage cells were transfected with AP-1-Luc reporter plasmid as described in Example 2.3. After 24 hours, the transfected cells with AP-1-Luc reporter plasmid were pretreated with compound 1.1 (SEQ ID NO: 2) (100 nM), IRAK1/4 inhibitor (25 μM), and smaducin-6 (100 nM) for 30 minutes, and then further treated with LPS (100 ng/ml) for 2 hours."}, "[2]": {"test_system": "NF-κB", "experiment": "5×NF-κB-Luc reporter luciferase assay in LPS-treated RAW 264.7 cells", "protocol": "Specifically, 5×NF-κB-Luc reporter plasmid was transfected into RAW 264.7 cells using Effectene (Qiagen, USA). The transfected cells were pretreated with 100 nM of compound 1.1 (SEQ ID NO: 2) for 30 minutes, and further treated with LPS (100 ng/ml) for two hours, and luciferase activity in the cells was measured (FIG. 4 depicts a graph showing relative inhibition activities of compound 1.1 (SEQ ID NO: 2) and compound 1.2 to NF-κB activation). When the cells were treated with compound 1.1 (SEQ ID NO: 2) and compound 1.2 according to the present invention, activation of NF-κB, which was induced by LPS, was inhibited (FIG. 4).\nIn addition, 5×NF-κB-Luc reporter plasmid was transfected into RAW 264.7 macrophage cells and treated with compounds of the present invention, as described above. After 24 hours of the transfection, the cells were pretreated with DMSO (control), compound 1.1 (SEQ ID NO: 2), reference compound 1 (SEQ ID NO: 16) (compound where palmitic acid is removed from compound 1.1 (SEQ ID NO: 2)), and smaducin-6 were treated at various concentrations of 100 pM, 1 nM, and 100 nM for 30 minutes, and then the cells were treated with 100 ng/ml of LPS for two hours.\nSpecifically, 5×NF-κB-Luc reporter plasmid, SBE-Luc reporter plasmid, and BRE-Luc reporter plasmid were individually transfected into Raw 264.7 macrophage cells. After 24 hours, the cells transfected with the NF-κB-Luc reporter plasmid were treated with 100 ng/mL of LPS, the cells transfected with the SBE-Luc reporter plasmid were treated with 5 ng/mL of TFG-β1, and the cells transfected with the BRE-Luc reporter plasmid were treated with 100 ng/mL of BMP6 for two hours.\nAs described in Example 2.3, 5×NF-κB-Luc reporter plasmid was transfected into RAW 246.7 macrophage cells. After 24 hours, the cells transfected with NF-κB-Luc reporter plasmid were pretreated with compound 1.1 (SEQ ID NO: 2) (100 nM), interleukin-1-receptor-associated-kinase-1/4 inhibitor (IRAK1/4) inhibitor (25 μM, CAS 509093-47-4), and smaducin-6 (100 nM) for 30 minutes, and then further treated with LPS (100 ng/ml) for 2 hours. Subsequently, luciferase activities in the cells were measured."}, "[3]": {"test_system": "MAPK signaling pathway proteins (ERK1/2, JNK, p38)", "experiment": "Western blot of MAPK signaling pathway protein phosphorylation in LPS-treated RAW 246.7 cells", "conditions": "for phosphorylation of the MAPK signaling pathway proteins (ERK1/2, JNK, p38): 100 nM for 30 minutes, LPS 0, 0.5, 1 and 2 hours", "protocol": "RAW 246.7 macrophage cells were pretreated with compound 1.1 (SEQ ID NO: 2), compound 1.2 and reference compound 1 (SEQ ID NO: 16) at a concentration of 100 nM for 30 minutes and then further treated with LPS for 0 hour, 0.5 hour, 1 hour and 2 hours. […] Changes of the concentration upon phosphorylation of each protein were measured by immunoblotting using anti-phosphorylation antibodies.\nSpecifically, RAW 246.7 macrophage cells were pretreated with DMSO, compound 1.1 (SEQ ID NO: 2) (100 nM), IRAK1/4 inhibitor (25 μM), and smaducin-6 (100 nM) for 30 minutes, and then further treated with LPS (100 ng/ml) for two hours."}, "[4]": {"test_system": "inflammatory signaling pathway protein complex mediated by MyD88 or RIP1", "experiment": "Immunoprecipitation of inflammatory signaling pathway protein complex in LPS-treated RAW264.7 cells", "conditions": "pretreated, then LPS", "excerpt": "Specifically, using antibodies corresponding to proteins which relate to the formation of Toll-like receptors (TLRs) signaling pathway protein complex (for example, IRAK1, TRAF6, MyD88, RIP1 and Pellino-1), disruption of the formation of inflammatory signaling pathway protein complexes was affirmed by immunoprecipitation. As reference control, a relative amount of expression of β-actin from the total cell lysate was compared and presented using Western blot.\nRAW264.7 macrophage cells were individually retreated with compound 1.1 (SEQ ID NO: 2) and compound 1.2, and smaducin-6, and further treated with LPS. These RAW264.7 macrophage cells were collected, lysed in a lysis butter (PBS containing 0.5% Triton X-100, 20 mM HEPES (pH 7.4), 150 mM NaCl, 12.5 mM β-glycerol phosphate, 1.5 mM MgCl2, 10 mM NaF, 2 mM DTT, 1 mM Na3O4V, 2 mM EGTA, and 1 mM Protease Inhibitor (PMSF)), and centrifuged at 13000 rpm for 10 minutes. For immunoprecipitation assays, the supernatant was incubated at 4° C. for 12 hours, with protein-A agarose beads and the antibodies corresponding to the above proteins, and the beads were subsequently washed three times with the lysis buffer. The immunoprecipitated substances were dissociated from the beads with addition of 2× sample buffer, and were boiled. The prepared samples were loaded on SDS-polyacrylamide gel (FIG. 7)."}, "[5]": {"test_system": "interleukin-6", "experiment": "Suppression of LPS-induced IL-6 expression in RAW 264.7 macrophage cells (RT-PCR, Real-Time PCR)", "conditions": "pretreated 100 nM for 30 min, LPS two hours, compared to untreated sample", "protocol": "First, RAW 264.7 macrophage cells were purchased from American Type Culture Collection (ATCC; Manassas, Va.), and were culture at a temperature of 37° C., under 5% CO2 atmosphere, using 10% Fetal Bovine Serum (FBS) and Dulbecco's Modified Eagle's Medium (DMEM) containing 1% penicillin/streptomycin.\nThe cultured RAW 264.7 macrophage cells were divided into a 6-well cell culture plate. After 24 hours, the cells were pretreated with compound 1.1 (SEQ ID NO: 2), compound 1.2, and smaducin-6, respectively, in a concentration of 100 nM for 30 min, and further treated with lipopolysaccharides (LPS) for two hours. These cells were collected using TRIzol® and the RNA was extracted. From 2 μg of the extracted RNA, cDNAs (complementary deoxyribonucleic acids) were synthesized and reverse transcription polymerase chain reactions (RT-PCR) and real-time polymerase chain reactions (Real-Time PCR) were performed. Samples from the RT-PCR were confirmed by electrophoresis on agarose gels and quantified using densitometer. A glyceraldehyde 3-phosphate dehydrogenase (GAPDH) gene was used as a loading control for the interleukin-6 gene.\nRAW 264.7 macrophage cells were treated with varying concentrations of compound 1.1 (SEQ ID NO: 2) from 50 pM to 500 nM for 30 minutes, and treated with 100 ng/mL of LPS for two hours."}, "[6]": {"target": "T1, inflammatory signaling pathway complex mediated by MyD88 and RIP1 (Mus musculus, UniProt P22366+Q60855)", "T1 construct": "endogenous in cells; host or cells: bone-marrow-derived macrophage (BMDM) cells", "T1 sequence (P22366 whole entry)": "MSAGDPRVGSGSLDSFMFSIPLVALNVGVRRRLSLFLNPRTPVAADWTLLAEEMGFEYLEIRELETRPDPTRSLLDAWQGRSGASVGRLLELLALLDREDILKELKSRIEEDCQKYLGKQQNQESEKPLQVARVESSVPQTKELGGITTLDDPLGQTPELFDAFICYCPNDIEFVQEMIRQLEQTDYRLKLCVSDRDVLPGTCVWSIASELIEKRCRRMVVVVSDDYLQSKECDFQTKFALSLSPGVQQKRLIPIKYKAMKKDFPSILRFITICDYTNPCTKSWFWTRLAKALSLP", "T1 sequence (Q60855 whole entry)": "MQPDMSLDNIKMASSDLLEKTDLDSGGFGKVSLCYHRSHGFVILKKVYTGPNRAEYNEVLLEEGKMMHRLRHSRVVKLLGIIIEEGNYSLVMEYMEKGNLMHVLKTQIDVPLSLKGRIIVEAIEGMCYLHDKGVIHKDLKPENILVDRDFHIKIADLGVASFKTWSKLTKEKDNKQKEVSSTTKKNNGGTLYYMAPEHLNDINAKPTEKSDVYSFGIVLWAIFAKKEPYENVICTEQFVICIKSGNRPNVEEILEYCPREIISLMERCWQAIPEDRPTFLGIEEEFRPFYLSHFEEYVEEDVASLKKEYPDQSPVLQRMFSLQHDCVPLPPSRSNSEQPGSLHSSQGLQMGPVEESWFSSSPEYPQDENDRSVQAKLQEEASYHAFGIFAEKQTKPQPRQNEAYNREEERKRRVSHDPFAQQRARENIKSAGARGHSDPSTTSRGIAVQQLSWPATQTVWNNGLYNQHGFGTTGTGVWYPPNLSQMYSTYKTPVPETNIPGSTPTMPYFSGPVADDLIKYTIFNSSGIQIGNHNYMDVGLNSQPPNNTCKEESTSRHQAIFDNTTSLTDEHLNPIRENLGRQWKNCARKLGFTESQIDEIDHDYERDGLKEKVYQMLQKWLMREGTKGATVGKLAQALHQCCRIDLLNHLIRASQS", "experiment": "Immunoprecipitation/immunoblot of inflammatory signaling pathway complex in LPS-treated BMDM cells", "conditions": "100 pM, 1 nM, 100 nM, then 100 ng/mL LPS", "protocol": "Bone-marrow-derived macrophage (BMDM) cells were individually pretreated with compound 1.1 (SEQ ID NO: 2), reference compound 1 (SEQ ID NO: 16), and smaducin-6 at various concentrations of 100 pM, 1 nM, and 100 nM, and then further treated with 100 ng/mL of LPS."}}, "note": "Peptide text beside a SMILES is read from it.", "data": [{"compound": "O=C(Nc1nc2ccccc2n1CCN1CCOCC1)c1cccc([N+](=O)[O-])c1", "note": "[IRAK1/4 inhibitor, reference compound]", "values": [{"measurement": "AP-1-Luc luciferase activity (MAPK signaling pathway)", "setting": "[1]", "value": "inhibited MAPK signaling pathway"}, {"measurement": "NF-κB activation (luciferase activity)", "setting": "[2]; 25 μM for 30 minutes, LPS 100 ng/ml 2 hours", "value": "inhibited"}, {"measurement": "MAPK signaling pathway / phosphorylation of ERK, JNK, p38", "setting": "[3]; 25 μM for 30 minutes, LPS 100 ng/ml two hours", "value": "suppressed at least one or more of MAPK signaling pathways"}]}, {"compound": "CCCCCCCCCCCCCCCC(=O)N1CCC[C@H]1C(=O)NCC(=O)N[C@@H](Cc1ccc(O)cc1)C(=O)O", "note": "[compound 1.2, (S)-3-(4-hydroxyphenyl)-2-(2-((S)-1-palmitoylpyrrolidine-2-carboxamido)acetamido)propanoic acid] (HELM PEPTIDE1{[CCCCCCCCCCCCCCCC(=O)[*:2]].P.G.Y}$$$$V2.0)", "values": [{"measurement": "formation of inflammatory signaling pathway protein complex mediated by MyD88 or RIP1", "setting": "[4]", "value": "disrupted"}, {"measurement": "activation of NF-κB induced by LPS (luciferase activity)", "setting": "[2]; 100 nM for 30 minutes, LPS 100 ng/ml two hours", "value": "inhibited"}, {"measurement": "expression of interleukin-6 induced by LPS treatment", "setting": "[5]", "value": "suppressed"}, {"measurement": "phosphorylation of the MAPK signaling pathway proteins (ERK1/2, JNK, p38)", "setting": "[3]", "value": "did not inhibit phosphorylation"}]}, {"compound": "reference compound 1: compound where palmitic acid is removed from compound 1.1 (SEQ ID NO: 2) (PPGY) [reference compound]", "values": [{"measurement": "formation of inflammatory signaling pathway complex mediated by MyD88 and RIP1", "setting": "[6]", "value": "formed the inflammatory signaling pathway complex"}, {"measurement": "inhibition of the activity of NF-κB induced by LPS, dose dependence", "setting": "[2]; 100 pM, 1 nM, 100 nM for 30 minutes, LPS 100 ng/ml two hours", "value": "not inhibited in dose dependent manner"}, {"measurement": "phosphorylation of the MAPK signaling pathway proteins (ERK1/2, JNK, p38)", "setting": "[3]", "value": "did not inhibit phosphorylation"}]}]}
